From patent US8426408B2, “Pyrimidine inhibitors of kinases” (AbbVie Inc., priority 2009, dated 2013) come the findings set out here.

Structures are written as SMILES.

One experiment addresses T1, Aurora B (Homo sapiens, UniProt Q96GD4).
T1 construct: Active Aurora B enzyme (recombinant residues 1-344)
Kind of experiment: Aurora B enzyme inhibition (time-resolved fluorescence, histone H3 peptide). It counts as biochemical. As to conditions: 1 mM ATP. The method in brief:
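Recombinant Aurora B (residues 1-344) with GST-INCENP phosphorylated biotinylated histone H3 (1-21) peptide at 1 mM ATP in HEPES pH 7.4 with MgCl2, orthovanadate and Triton X-100 for 1 h. After EDTA stop, the phosphopeptide was detected by TR-FRET (Eu-cryptate anti-phospho-H3 / SA-APC, 665/615 nm ratio). IC50 from an exponential fit.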

The next experiment deals with T2, Aurora A (Homo sapiens, UniProt O14965).
T2 sequence (O14965 1-403): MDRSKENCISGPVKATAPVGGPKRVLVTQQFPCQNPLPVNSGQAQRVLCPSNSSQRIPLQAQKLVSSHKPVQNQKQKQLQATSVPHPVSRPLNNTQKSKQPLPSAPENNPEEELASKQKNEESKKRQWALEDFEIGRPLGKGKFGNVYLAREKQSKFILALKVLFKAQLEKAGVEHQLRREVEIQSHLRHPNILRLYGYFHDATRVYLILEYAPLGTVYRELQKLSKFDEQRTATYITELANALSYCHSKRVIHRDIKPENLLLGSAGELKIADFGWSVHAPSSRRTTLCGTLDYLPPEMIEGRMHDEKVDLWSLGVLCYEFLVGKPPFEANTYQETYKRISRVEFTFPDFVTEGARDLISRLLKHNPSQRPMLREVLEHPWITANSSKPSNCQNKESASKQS
In words: Aurora A enzyme inhibition (time-resolved fluorescence, STK substrate-2). It counts as biochemical. As to conditions: 1 mM ATP. The method in brief: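 Active enzyme incubated 1 h with biotinylated STK substrate-2, 1 mM ATP and inhibitor in Hepes pH 7.4 with MgCl2, orthovanadate and Triton X-100. EDTA stop; phosphopeptide detected by Eu-cryptate anti-phospho-STK/SA-XL665 TR-FRET (665/615 nm ratio); IC50 by exponential fit.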

Experiment [1] deals with T3, KDR (Homo sapiens, UniProt P35968). In words: KDR HTRF in vitro kinase assay. As to conditions: 1 mM ATP; read-out: KDR enzyme inhibition data (Ki). In kind it is biochemical. On the set-up: purified enzyme (His6-KDR 789-1354, MW 63 kD); His6 (N). The method in brief: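 His6-KDR 789-1354 (7 ng/well) with 0.5 μM biotinylated peptide substrate and 1 mM ATP in HEPES pH 7.1, MgCl2/MnCl2, 60 min at room temperature. EDTA-quenched, detected by streptavidin-XL-665 plus Eu-kryptate anti-phosphotyrosine HTRF after 3 h; IC50 from 620/665 nm ratio.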
Target sequence in this assay (P35968 789-1354): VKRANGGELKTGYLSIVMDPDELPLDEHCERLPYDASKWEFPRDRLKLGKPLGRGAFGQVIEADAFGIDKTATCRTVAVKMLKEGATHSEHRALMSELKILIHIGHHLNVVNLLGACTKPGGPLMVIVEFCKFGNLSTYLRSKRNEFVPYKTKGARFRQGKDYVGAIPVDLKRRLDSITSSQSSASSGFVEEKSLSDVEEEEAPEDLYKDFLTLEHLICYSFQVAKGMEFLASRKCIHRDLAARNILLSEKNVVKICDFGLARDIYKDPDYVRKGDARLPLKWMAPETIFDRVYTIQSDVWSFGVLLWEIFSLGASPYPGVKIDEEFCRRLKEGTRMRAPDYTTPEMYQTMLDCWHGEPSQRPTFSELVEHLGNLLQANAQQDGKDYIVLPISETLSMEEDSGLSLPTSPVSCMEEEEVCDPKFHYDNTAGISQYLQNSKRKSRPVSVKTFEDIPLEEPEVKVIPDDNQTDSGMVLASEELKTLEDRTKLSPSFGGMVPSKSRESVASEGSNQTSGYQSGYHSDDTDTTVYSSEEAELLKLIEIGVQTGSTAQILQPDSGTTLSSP
For orientation: In TR-FRET formats the signal depends on donor and acceptor labels being close together.

Experiment [2] deals with T3, KDR. In words: KDR cellular assay (KDR receptor phosphorylation ELISA). In kind it is cell-based. On the set-up: expressed in transfected cells; host or cells: 3T3 (embryonic mouse) cells. As to conditions: KDR transfected 3T3 (embryonic mouse) cells, VEGF stimulated; read-out: IC50 inhibition of KDR phosphorylation. Here is the method:
The ability of compounds to inhibit KDR receptor phosphorylation in cells was measured by ELISA following the protocol outlined below.
KDR transfected 3T3 (embryonic mouse) cells added to 96-well tissue culture plates at 20,000 cells/well.
Plates were covered and placed in a 37° C. humidified incubator with 5% CO2 overnight, to allow cells to adhere.
Coating solution was prepared: 500 l/vial PBS was added to 2 vials of anti-KDR antibody, then 1 ml solubilized anti-KDR antibody into 29.0 ml bicarbonate buffer. Coating solution was added to all wells at 150 µl/well (final amount anti-KDR=1 µg/well) and placed at 4° C. overnight.
Blocking solution (2.1 g dry milk+42 ml PBS=5% milk in PBS) was placed on a stir plate for 30 min.
Assay plates were washed twice with PBST, and 200 µl/well blocking solution was added to all wells. Assay plates were covered with plate sealers and placed in a 37° C. microplate chamber until just before cell lysate transfer.
Compound stocks were thawed or prepared in DMSO as 5 mM stocks.
Dilution medium (DM, 1% DMSO in DMEM) and compounds were diluted by half-log increments for concentration response analysis.
Conditioned media was dumped from the tissue culture plates, and plates were blotted dry.
Standard solution in DM, compound dilutions in DM, or DM (for high control, negative control, and reference wells) were added to the tissue culture plates, 25 µl/well. Each pair of tissue culture plates was prepared with the same compounds, solutions, and layout; and will be combined later; Tissue culture plates were covered and placed in the 37° C. microplate chamber for 20 min.
VEGF solution was prepared: 110 l VEGF stock+10.89 ml DM=100 ng/ml VEGF
VEGF solution or DM (for reference wells) was added to the tissue culture plates, 25 μl/well.
Tissue culture plates were covered and placed in the 37° C. microplate chamber for 10 min.
RIPA buffer was prepared (240 l NaVO3 stock+240 l PIC stock+24 l NaF stock+23.496 ml RIPA base) and added to the tissue culture plates, 50 µl/well.
Tissue culture plates were covered and placed on a Labline plate shaker for 10 min (speed about 5).
Assay plates were washed twice with PBST.
Cell lysates from matching wells of each pair of tissue culture plates were combined to =200 µl/well, and were pipetted up and down to mix. Cell lysates were transferred to the assay plates using the same layouts, 170 µl/well.
Assay plates were covered with plate sealers and placed on a Labline plate shaker for 2 hr (speed about 5).
Assay plates were washed 5 times with PBST.
Biotin antibody solution was prepared (16 l biotin antibody stock+32 ml PBST=2000× dilution) and added to the assay plates, 150 µl/well.
Assay plates were covered with plate sealers and placed on a Labline plate shaker for 90 min
Streptavidin-HRP solution was prepared (16 l streptavidin-HRP stock+32 ml PBST=2000× dilution) and added to the assay plates, 150 µl/well.
Assay plates were covered with plate sealers and placed on a Labline plate shaker for 60 min
Substrate was added to the assay plates, 100 µl/well.
As assay plates developed, the plates were each monitored on a Molecular Devices Spectramax set to 650 nm, until the signal in the high control wells was around 0.6 OD and the signal in the negative control wells was around 0.1-0.15 OD.
Stop solution was added to the assay plates, 100 µl/well.
The plates were read on a Molecular Devices Spectramax set to 450 nm.
Data was calculated by Assay Explorer, using same-plate high control wells as 0% and reference standard wells as 100% inhibition of KDR phosphorylation. IC50 values were calculated by non-linear regression analysis of the concentration response data.
Target sequence in this assay (P35968 20-1356): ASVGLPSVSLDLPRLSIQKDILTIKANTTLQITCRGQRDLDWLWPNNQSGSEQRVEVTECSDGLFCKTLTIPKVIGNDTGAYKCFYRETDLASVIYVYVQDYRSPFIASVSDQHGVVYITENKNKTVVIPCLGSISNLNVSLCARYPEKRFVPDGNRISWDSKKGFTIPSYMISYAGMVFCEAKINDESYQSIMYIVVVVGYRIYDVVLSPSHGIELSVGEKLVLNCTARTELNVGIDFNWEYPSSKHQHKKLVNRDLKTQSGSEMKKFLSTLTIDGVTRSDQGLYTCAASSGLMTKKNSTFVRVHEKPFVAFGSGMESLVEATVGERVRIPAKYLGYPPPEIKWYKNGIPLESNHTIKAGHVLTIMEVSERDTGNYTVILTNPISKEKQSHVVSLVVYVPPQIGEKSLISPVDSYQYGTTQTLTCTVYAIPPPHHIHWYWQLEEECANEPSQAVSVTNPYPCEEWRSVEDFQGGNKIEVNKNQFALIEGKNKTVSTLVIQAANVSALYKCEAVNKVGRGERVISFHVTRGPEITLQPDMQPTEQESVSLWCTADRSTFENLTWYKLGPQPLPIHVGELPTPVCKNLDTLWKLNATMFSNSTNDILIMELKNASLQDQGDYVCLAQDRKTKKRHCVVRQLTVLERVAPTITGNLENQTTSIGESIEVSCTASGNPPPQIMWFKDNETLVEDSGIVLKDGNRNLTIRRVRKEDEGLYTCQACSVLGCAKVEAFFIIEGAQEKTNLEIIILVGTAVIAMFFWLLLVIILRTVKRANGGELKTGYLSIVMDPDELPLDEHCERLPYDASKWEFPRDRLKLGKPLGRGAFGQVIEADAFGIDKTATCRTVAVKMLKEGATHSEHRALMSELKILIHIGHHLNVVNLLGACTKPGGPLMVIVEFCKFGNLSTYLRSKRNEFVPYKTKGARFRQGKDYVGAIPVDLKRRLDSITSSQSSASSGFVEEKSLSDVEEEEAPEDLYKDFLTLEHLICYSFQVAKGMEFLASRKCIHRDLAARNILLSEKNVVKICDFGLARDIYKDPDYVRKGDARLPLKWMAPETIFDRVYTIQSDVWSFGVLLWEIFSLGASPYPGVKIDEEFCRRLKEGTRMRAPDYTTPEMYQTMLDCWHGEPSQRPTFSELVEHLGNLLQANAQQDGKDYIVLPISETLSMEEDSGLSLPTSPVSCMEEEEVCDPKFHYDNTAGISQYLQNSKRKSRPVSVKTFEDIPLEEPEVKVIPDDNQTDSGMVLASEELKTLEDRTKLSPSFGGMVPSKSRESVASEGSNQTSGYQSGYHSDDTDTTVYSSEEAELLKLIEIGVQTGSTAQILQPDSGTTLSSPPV
(In general: An ELISA detects its analyte on a solid surface through an enzyme-linked reagent.)

T1 sequence (Q96GD4 whole entry, the tested form may be a part): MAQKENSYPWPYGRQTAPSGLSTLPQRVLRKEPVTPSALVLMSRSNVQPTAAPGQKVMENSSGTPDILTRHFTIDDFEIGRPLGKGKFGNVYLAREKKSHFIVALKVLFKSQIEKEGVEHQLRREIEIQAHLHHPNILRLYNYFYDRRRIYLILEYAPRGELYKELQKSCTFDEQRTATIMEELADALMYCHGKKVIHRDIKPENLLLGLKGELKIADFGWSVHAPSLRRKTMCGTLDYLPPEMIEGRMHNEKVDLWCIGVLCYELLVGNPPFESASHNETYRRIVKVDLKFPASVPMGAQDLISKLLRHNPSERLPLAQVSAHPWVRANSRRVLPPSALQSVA
T1 sequence (Q9NQS7 826-918 partner limits assumed): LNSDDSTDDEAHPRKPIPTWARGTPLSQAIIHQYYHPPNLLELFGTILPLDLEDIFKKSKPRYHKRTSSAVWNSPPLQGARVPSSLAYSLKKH

As for `Cn1cc(Nc2ncc(C(F)(F)F)c(Nc3sccc3C(N)=O)n2)cn1` [Example 152, 2-({2-[(1-methyl-1H-pyrazol-4-yl)amino]-5-(trifluoromethyl)pyrimidin-4-yl}amino)thiophene-3-carboxamide], the Ki (usually the dissociation constant of the complex between target and ligand, obtained from inhibition or displacement) at Aurora B was below 100 nM; at Aurora A it was below 100 nM; at KDR [1] it was 100 to 1000 nM. Also, the IC50 – broadly, the concentration needed to halve the response being measured – on KDR [2] lay within 100 to 1000 nM.

As to `Cn1cc(Nc2ncc(C(F)(F)F)c(Nc3cn(C)nc3C(N)=O)n2)cn1` [Example 153, 1-methyl-4-({2-[(1-methyl-1H-pyrazol-4-yl)amino]-5-(trifluoromethyl)pyrimidin-4-yl}amino)-1H-pyrazole-3-carboxamide], the figures for the inhibitory constant (Ki) at Aurora B, at Aurora A and on KDR [1] were below 100 nM, below 100 nM and 100 to 1000 nM, respectively. In addition, on KDR [2], the half-maximal inhibitory concentration (IC50) was in the range of 100 to 1000 nM.

Take `CC(C)NC(=O)[C@H]1CCC[C@H]1Nc1nc(Nc2cnn(CCN3CCOCC3)c2)ncc1Cl` [Example 164, (1S,2R)-2-{[5-chloro-2-({1-[2-(morpholin-4-yl)ethyl]-1H-pyrazol-4-yl}amino)pyrimidin-4-yl]amino}-N-isopropylcyclopentanecarboxamide]: the values for the Ki on Aurora B, on Aurora A and at KDR [1] were below 100 nM, below 100 nM and 100 to 1000 nM, respectively. The IC50 on KDR [2] lay within 100 to 1000 nM.

Regarding `CCn1cc(Nc2ncc(Cl)c(N[C@H]3[C@@H](C(N)=O)C[C@H]4C[C@@H]3C4(C)C)n2)cn1` [Example 166, (1R,2R,3S,5R)-2-({5-chloro-2-[(1-ethyl-1H-pyrazol-4-yl)amino]pyrimidin-4-yl}amino)-6,6-dimethylbicyclo[3.1.1]heptane-3-carboxamide], the inhibitory constant (Ki) at Aurora B, at Aurora A and at KDR [1] was below 100 nM throughout. Further, at KDR [2], the IC50 lay in the range of 100 to 1000 nM.

For `Cn1cc(Nc2ncc(Cl)c(Nc3ccc4[nH]ncc4c3)n2)cn1` [Example 175, 5-chloro-N^4-(1H-indazol-5-yl)-N^2-(1-methyl-1H-pyrazol-4-yl)pyrimidine-2,4-diamine], the Ki at Aurora B, at Aurora A and at KDR [1] was below 100 nM each time. For the same compound, the half-inhibitory concentration (IC50) on KDR [2] lay in the range of 100 to 1000 nM.

Regarding `OCCn1cc(Nc2ncc(Cl)c(Nc3ccc4[nH]ncc4c3)n2)cn1` [Example 180, 2-(4-{[5-chloro-4-(1H-indazol-5-ylamino)pyrimidin-2-yl]amino}-1H-pyrazol-1-yl)ethanol], the Ki at Aurora B, on Aurora A and at KDR [1] was below 100 nM in each case. At KDR [2], the 50% inhibitory concentration (IC50) lay in the range of 100 to 1000 nM.

On to `Cn1cc(Nc2ncc(Br)c(N[C@H]3[C@@H](C(N)=O)C[C@H]4C[C@@H]3C4(C)C)n2)cn1` [Example 182, (1R,2R,3S,5R)-2-({5-bromo-2-[(1-methyl-1H-pyrazol-4-yl)amino]pyrimidin-4-yl}amino)-6,6-dimethylbicyclo[3.1.1]heptane-3-carboxamide], for which the Ki at Aurora B, on Aurora A and on KDR [1] was below 100 nM throughout. In addition, the concentration for half-maximal inhibition (IC50) at KDR [2] is 100 to 1000 nM.

Consider `CCn1cc(Nc2ncc(Br)c(N[C@H]3[C@@H](C(N)=O)C[C@H]4C[C@@H]3C4(C)C)n2)cn1` [Example 183, (1R,2R,3S,5R)-2-({5-bromo-2-[(1-ethyl-1H-pyrazol-4-yl)amino]pyrimidin-4-yl}amino)-6,6-dimethylbicyclo[3.1.1]heptane-3-carboxamide], for which the Ki on Aurora B, at Aurora A and on KDR [1] was below 100 nM in each case. For the same compound, the concentration for half-maximal inhibition (IC50) on KDR [2] was 100 to 1000 nM.

Turning to `Cc1c(Nc2ncc(Cl)c(N[C@H]3[C@@H](C(N)=O)C[C@H]4C[C@@H]3C4(C)C)n2)cnn1C` [Example 184, (1R,2R,3S,5R)-2-({5-chloro-2-[(1,5-dimethyl-1H-pyrazol-4-yl)amino]pyrimidin-4-yl}amino)-6,6-dimethylbicyclo[3.1.1]heptane-3-carboxamide], the Ki at Aurora B, on Aurora A and at KDR [1] was below 100 nM in each case. At KDR [2], the half-inhibitory concentration (IC50) was 100 to 1000 nM.
